Assay results taken from patent EP0719267B1, “SECOND MESSENGER CELL SIGNALING INHIBITORS” (CELL THERAPEUTICS, INC., priority 1993, dated 1994).

Tested on: human pulmonary smooth muscle cells
Assay: Growth factor-induced proliferation of pulmonary smooth muscle cells
Type: cell-based
Conditions: 5 µM
Procedure: 58 on either aFGF or bFGF-induced proliferation in human pulmonary smooth muscle cells. Cells were grown in reduced serum (0.5% fetal calf serum) for 24 hours prior to stimulating with various concentrations of […]. Cells, stimulated with either aFGF or bFGF, were analyzed in the presence and absence of compound no. 58 (5 µM). Assay results are reported in figures 25A and 25B (aFGF and bFGF, respectively). As shown in the results, compound no.
Figures 65A-65F illustrate inhibition of proliferation in either human aortic or pulmonary smooth muscle cells (SMC) by inventive compound no. 58. Procedurally, cells were cultured in 0.5% serum containing medium 24 hours prior to stimulation with various concentrations of either PDGF (figs. 65A and 65B), acidic FGF (figs. 65C and 65D) or basic FGF (figs. 65E and 65F). Cells were stimulated for 24 hours prior to labeling with ^3H-TdR for 4 hours and harvested and counted by scintillation. Compound no. 58 was added 1 hour prior to stimulation at a concentration of 5 µM. Even at points of maximum stimulation of the growth factors, compound no. […] In addition cell number was assessed and those treated with compound no.

COc1cc(CNCC(O)CCCCCCCCCn2c(=O)c3c(ncn3C)n(C)c2=O)cc(OC)c1OC (stereo not drawn) [compound no. 58, 1-[11-(3,4,5-Trimethoxybenzylamino)-10-hydroxyundecyl]-3,7-dimethylxanthine]
inhibition of aFGF and bFGF-induced proliferation: a potent inhibitor of both aFGF and bFGF-induced proliferation
toxic effect: No toxic effect
inhibition of proliferation at maximum stimulation by PDGF, acidic FGF or basic FGF (added 1 hour prior): completely inhibited cellular proliferation in both aortic and pulmonary SMC
